According to patent US9422280B2, “N-substituted hetero-bicyclic compounds and derivatives for combating animal pests II” (BASF SE, priority 2012, dated 2016):

Experiments:
Type in all cases: in vivo
[1] = test system: Boll Weevil (Anthonomus grandis); assay: Boll weevil insect diet microtiter test; conditions: 120 h, sprayed onto insect diet with eggs, egg and larval mortality after 5 days, read-out: mortality in comparison with untreated controls
Procedure: B.6 Boll Weevil (Anthonomus grandis)
For evaluating control of boll weevil (Anthonomus grandis) the test unit consisted of 24-well-microtiter plates containing an insect diet and 20-30 A. grandis eggs.
The compounds were formulated using a solution containing 75% v/v water and 25% v/v DMSO. Different concentrations of formulated compounds were sprayed onto the insect diet at 20 μl, using a custom built micro atomizer, at two replications.
After application, microtiter plates were incubated at about 23±1° C. and about 50±5% relative humidity for 5 days. Egg and larval mortality was then visually assessed.

[2] = test system: Vetch Aphid (Megoura viciae); assay: Vetch aphid broad bean leaf disk microtiter test; conditions: foliar, 120 h, sprayed broad bean leaf disks, 5 days, read-out: mortality in comparison with untreated controls
Procedure: B.4 Vetch Aphid (Megoura viciae)
For evaluating control of vetch aphid (Megoura viciae) through contact or systemic means the test unit consisted of 24-well-microtiter plates containing broad bean leaf disks.
The compounds were formulated using a solution containing 75% v/v water and 25% v/v DMSO. Different concentrations of formulated compounds were sprayed onto the leaf disks at 2.5 μl, using a custom built micro atomizer, at two replications.
After application, the leaf disks were air-dried and 5-8 adult aphids placed on the leaf disks inside the microtiter plate wells. The aphids were then allowed to suck on the treated leaf disks and incubated at about 23±1° C. and about 50±5% relative humidity for 5 days. Aphid mortality and fecundity was then visually assessed.

[3] = test system: Silverleaf Whitefly (bemisia argentifolii); assay: Silverleaf whitefly spray test on cotton plants; conditions: 72 h, sprayed cotton plants, whitefly adults, 3 days after treatment, read-out: mortality in comparison with untreated controls
Text: B.5 Silverleaf Whitefly (bemisia argentifolii)
(§1) The active compounds were formulated in cyclohexanone as a 10,000 ppm solution supplied in tubes. The tubes were inserted into an automated electrostatic sprayer equipped with an atomizing nozzle and they served as stock solutions for which lower dilutions were made in 50% acetone:50% water (v/v). A nonionic surfactant (Kinetic®) was included in the solution at a volume of 0.01% (v/v).
Cotton plants at the cotyledon stage (one plant per pot) were sprayed by an automated electrostatic plant sprayer equipped with an atomizing spray nozzle. The plants were dried in the sprayer fume hood and then removed from the sprayer. Each pot was placed into a plastic cup and about 10 to 12 whitefly adults (approximately 3-5 days old) were introduced. The insects were collected using an aspirator and a nontoxic Tygon® tubing connected to a barrier pipette tip. The tip, containing the collected insects, was then gently inserted into the soil containing the treated plant, allowing insects to crawl out of the tip to reach the foliage for feeding. Cups were covered with a reusable screened lid. […] Mortality was assessed 3 days after treatment, compared to untreated control plants.

[4] = test system: Orchid Thrips (dichromothrips corbetti); assay: Orchid thrips floral-immersion test; conditions: dipped orchid flowers, adult thrips, 72 hours after treatment, read-out: mortality in comparison with untreated controls
Procedure: B.7 Orchid Thrips (dichromothrips corbetti)
Dichromothrips corbetti adults used for bioassay were obtained from a colony maintained continuously under laboratory conditions. For testing purposes, the test compound is diluted in a 1:1 mixture of acetone:water (vol:vol), plus 0.01% vol/vol Alkamuls® EL 620 surfactant.
Thrips potency of each compound was evaluated by using a floral-immersion technique. Plastic petri dishes were used as test arenas. All petals of individual, intact orchid flowers were dipped into treatment solution and allowed to dry. Treated flowers were placed into individual petri dishes along with about 20 adult thrips. The petri dishes were then covered with lids. All test arenas were held under continuous light and a temperature of about 28° C. for duration of the assay. After 3 days, the numbers of live thrips were counted on each flower, and along inner walls of each petri dish. The percentmortality was recorded 72 hours after treatment.

[5] = test system: Rice Green Leafhopper (Nephotettix virescens); assay: Rice green leafhopper spray test on rice seedlings; conditions: sprayed rice seedlings, adults, after 72 hours, read-out: mortality in comparison with untreated controls
Procedure: B.8 Rice Green Leafhopper (Nephotettix virescens)
(§2) Rice seedlings were cleaned and washed 24 hours before spraying. The active compounds were formulated in 50:50 acetone:water (vol:vol), and 0.1% vol/vol surfactant (EL 620) was added. Potted rice seedlings were sprayed with 5 ml test solution, air dried, placed in cages and inoculated with 10 adults. Treated rice plants were kept at about 28-29° C. and relative humidity of about 50-60%. Percent mortality was recorded after 72 hours.

[6] = test system: Cotton Aphid (Aphis gossypii); assay: Cotton aphid cotyledon dip test; conditions: 120 h, cotton cotyledons dipped, mortality counts after 5 days, read-out: mortality in comparison with untreated controls
Text: B.2 Cotton Aphid (Aphis gossypii)
The active compounds were formulated in 50:50 (vol:vol) acetone:water and 100 ppm Kinetica™ surfactant.
Cotton plants at the cotyledon stage (one plant per pot) were infested by placing a heavily infested leaf from the main colony on top of each cotyledon. The aphids were allowed to transfer to the host plant overnight, and the leaf used to transfer the aphids was removed. The cotyledons were dipped in the test solution and allowed to dry. After 5 days, mortality counts were made.

[7] = test system: Cowpea Aphid (Aphis craccivora); assay: Cowpea aphid spray test on potted cowpea plants; conditions: sprayed cowpea plants, population reduction assessed after 24, 72 and 120 hours, read-out: mortality in comparison with untreated controls
Procedure: B.3 Cowpea Aphid (Aphis craccivora)
The active compound is dissolved at the desired concentration in a mixture of 1:1 (vol:vol) distilled water:acetone. The test solution is prepared at the day of use.
Potted cowpea plants colonized with approximately 100-150 aphids of various stages were sprayed after the pest population has been recorded. Population reduction was assessed after 24, 72, and 120 hours.

[8] = test system: Rice Brown Plant Hopper (Nilaparvata lugens); assay: Rice brown plant hopper spray test on rice seedlings; conditions: sprayed rice seedlings, adults, after 72 hours, read-out: mortality in comparison with untreated controls
Procedure: B.9 Rice Brown Plant Hopper (Nilaparvata lugens)
as §2, with “(vol:vol)” for “(vol:vol),”

[9] = test system: Green Peach Aphid (Myzus persicae); assay: Green peach aphid foliar spray test on bell pepper; conditions: 120 h, sprayed bell pepper plants, aphid mortality after 5 days, read-out: mortality in comparison with untreated controls
Text: B.1 Green Peach Aphid (Myzus persicae)
as §1
Bell pepper plants at the first true-leaf stage were infested prior to treatment by placing heavily infested leaves from the main colony on top of the treatment plants. Aphids were allowed to transfer overnight to accomplish an infestation of 30-50 aphids per plant and the host leaves were removed. The infested plants were then sprayed by an automated electrostatic plant sprayer equipped with an atomizing spray nozzle. The plants were dried in the sprayer fume hood, removed, and then maintained in a growth room under fluorescent lighting in a 24-hr photoperiod at about 25° C. and about 20-40% relative humidity. Aphid mortality on the treated plants, relative to mortality on untreated control plants, was determined after 5 days.

Row | SMILES | mortality at 2500 ppm [1] | mortality at 800 ppm [2] | mortality at 500 ppm [3] | mortality at 500 ppm [4] | mortality at 500 ppm [5] | mortality at 300 ppm [6] | mortality at 500 ppm [7] | mortality at 500 ppm [8] | mortality at 300 ppm [9]
1 | Clc1ccc(Cn2cccc3nc(Cl)nc2-3)cn1 [E1.8, 2-chloro-4-[(6-chloro-3-pyridyl)methyl]imidazo[4,5-b]pyridine] | > 75% | ≥ 75% | ≥ 75% | ≥ 75% | ≥ 75% | ≥ 75% | ≥ 75% | ≥ 75% | ≥ 75%
2 | CSc1nc2cccn(Cc3ccc(Cl)nc3)c-2n1 [E1.4, 4-[(6-chloro-3-pyridyl)methyl]-2-methylsulfanyl-imidazo[4,5-b]pyridine] |  | ≥ 75% |  |  |  |  | ≥ 75% |  | 
3 | FC(F)(F)c1nc2cccn(Cc3ccc(Cl)nc3)c-2n1 [E1.15, 4-[(6-chloro-3-pyridyl)methyl]-2-(trifluoromethyl)imidazo[4,5-b]pyridine] |  | ≥ 75% | ≥ 75% | ≥ 75% | ≥ 75% | ≥ 75% | ≥ 75% | ≥ 75% | 
